Tests used:
Test in all cases: cells
[1] = test system: CP50-MEL-B; assay type: functional, cell-based, Homo sapiens; conditions: Homo sapiens, CP50-MEL-B;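 further: growth inhibition of the human cell line, measured with a cell viability read-out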
Description: SANGER: Inhibition of human CP50-MEL-B cell growth in a cell viability assay.

[2] = test system: Calu-6; assay type: functional, cell-based, Homo sapiens; conditions: Homo sapiens, Calu-6;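 further: growth of human Calu-6 cells, read out by a cell viability assay, IC50 marking inhibition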
Description: SANGER: Inhibition of human Calu-6 cell growth in a cell viability assay.

[3] = test system: FTC-133; assay type: functional, cell-based, Homo sapiens; conditions: Homo sapiens, FTC-133
[4] = test system: HPAF-II; assay type: functional, cell-based, Homo sapiens; conditions: Homo sapiens, HPAF-II;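 further: growth inhibition of HPAF-II cells, read out with a cell viability assay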
Description: SANGER: Inhibition of human HPAF-II cell growth in a cell viability assay.

[5] = test system: HSC-2; assay type: functional, cell-based, Homo sapiens; conditions: Homo sapiens, HSC-2;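 further: growth inhibition of human HSC-2 cells, read out by a cell viability assay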
Description: SANGER: Inhibition of human HSC-2 cell growth in a cell viability assay.

[6] = test system: HT; assay type: functional, cell-based; conditions: Homo sapiens
Description: SANGER: Inhibition of human HT cell growth in a cell viability assay.

[7] = test system: HT-144; assay type: functional, cell-based, Homo sapiens; conditions: Homo sapiens, HT-144
Description: SANGER: Inhibition of human HT-144 cell growth in a cell viability assay.

[8] = test system: J-RT3-T3-5; assay type: functional, cell-based; conditions: Homo sapiens;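 further: cell viability assay measuring growth inhibition of human J-RT3-T3-5 cells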
Description: SANGER: Inhibition of human J-RT3-T3-5 cell growth in a cell viability assay.

[9] = test system: JEG-3; assay type: functional, cell-based, Homo sapiens; conditions: Homo sapiens, JEG-3;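 further: growth inhibition of human JEG-3 cells, read out with a cell viability assay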
Description: SANGER: Inhibition of human JEG-3 cell growth in a cell viability assay.

[10] = test system: KYSE-180; assay type: functional, cell-based, Homo sapiens; conditions: Homo sapiens, KYSE-180;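 further: growth inhibition of KYSE-180 cells, read out with a cell viability assay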
Description: SANGER: Inhibition of human KYSE-180 cell growth in a cell viability assay.

[11] = test system: LCLC-97TM1; assay type: functional, cell-based, Homo sapiens; conditions: Homo sapiens, LCLC-97TM1;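 further: cell viability assay measuring growth inhibition of human LCLC-97TM1 cells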
Description: SANGER: Inhibition of human LCLC-97TM1 cell growth in a cell viability assay.

[12] = test system: LXF-289 cell line; assay type: functional, cell-based, Homo sapiens; conditions: Homo sapiens, LXF-289
Description: SANGER: Inhibition of human LXF-289 cell growth in a cell viability assay.

[13] = test system: ME-180; assay type: functional, cell-based; conditions: Homo sapiens;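 further: cell viability assay measuring growth inhibition of ME-180 cells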
Description: SANGER: Inhibition of human ME-180 cell growth in a cell viability assay.

[14] = test system: MFE-280; assay type: functional, cell-based, Homo sapiens; conditions: Homo sapiens, MFE-280;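 further: growth inhibition of MFE-280 cells, determined with a cell viability readout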
Description: SANGER: Inhibition of human MFE-280 cell growth in a cell viability assay.

[15] = test system: MHH-NB-11; assay type: functional, cell-based, Homo sapiens; conditions: Homo sapiens, MHH-NB-11;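 further: growth inhibition of human MHH-NB-11 cells, read out by a cell viability assay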
Description: SANGER: Inhibition of human MHH-NB-11 cell growth in a cell viability assay.

[16] = test system: MOLT-16; assay type: functional, cell-based; conditions: Homo sapiens;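 further: growth inhibition of human MOLT-16 cells, read out with a cell viability assay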
Description: SANGER: Inhibition of human MOLT-16 cell growth in a cell viability assay.

[17] = test system: MPP-89; assay type: functional, cell-based, Homo sapiens; conditions: Homo sapiens, MPP-89;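 further: growth inhibition of human MPP-89 cells, read out with a cell viability assay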
Description: SANGER: Inhibition of human MPP-89 cell growth in a cell viability assay.

[18] = test system: MS-1; assay type: functional, cell-based; conditions: Homo sapiens;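 further: growth inhibition of MS-1 cells, read out by cell viability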
Description: SANGER: Inhibition of human MS-1 cell growth in a cell viability assay.

[19] = test system: MSTO-211H; assay type: functional, cell-based, Homo sapiens; conditions: Homo sapiens, MSTO-211H
Description: SANGER: Inhibition of human MSTO-211H cell growth in a cell viability assay.

[20] = test system: MZ2-MEL; assay type: functional, cell-based, Homo sapiens; conditions: Homo sapiens, MZ2-MEL;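 further: growth inhibition of MZ2-MEL cells read out with a cell viability assay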
Description: SANGER: Inhibition of human MZ2-MEL cell growth in a cell viability assay.

[21] = test system: NCI-H1092; assay type: functional, cell-based; conditions: Homo sapiens;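 further: cell growth inhibition measured with a cell viability assay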
Description: SANGER: Inhibition of human NCI-H1092 cell growth in a cell viability assay.

[22] = test system: NCI-H1355; assay type: functional, cell-based, Homo sapiens; conditions: Homo sapiens, NCI-H1355;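 further: growth inhibition of human NCI-H1355 cells, read out by a cell viability assay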
Description: SANGER: Inhibition of human NCI-H1355 cell growth in a cell viability assay.

[23] = test system: NCI-H1838; assay type: functional, cell-based, Homo sapiens; conditions: Homo sapiens, NCI-H1838;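 further: growth inhibition of NCI-H1838 cells, determined with a cell viability readout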
Description: SANGER: Inhibition of human NCI-H1838 cell growth in a cell viability assay.

[24] = test system: NCI-H2170; assay type: functional, cell-based, Homo sapiens; conditions: Homo sapiens, NCI-H2170;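 further: cell viability assay measuring growth inhibition of human NCI-H2170 cancer cells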
Description: SANGER: Inhibition of human NCI-H2170 cell growth in a cell viability assay.

[25] = test system: NCI-H650; assay type: functional, cell-based, Homo sapiens; conditions: Homo sapiens, NCI-H650;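 further: growth inhibition of NCI-H650 cells, read out by a viability assay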
Description: SANGER: Inhibition of human NCI-H650 cell growth in a cell viability assay.

[26] = test system: NKM-1; assay type: functional, cell-based; conditions: Homo sapiens;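 further: growth inhibition of NKM-1 cells, read out with a cell viability assay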
Description: SANGER: Inhibition of human NKM-1 cell growth in a cell viability assay.

[27] = test system: NOMO-1; assay type: functional, cell-based; conditions: Homo sapiens;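 further: growth inhibition of human NOMO-1 cells measured by a cell viability assay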
Description: SANGER: Inhibition of human NOMO-1 cell growth in a cell viability assay.

[28] = test system: NUGC-3; assay type: functional, cell-based, Homo sapiens; conditions: Homo sapiens, NUGC-3;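 further: growth inhibition of human NUGC-3 cells, read out with a cell viability assay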
Description: SANGER: Inhibition of human NUGC-3 cell growth in a cell viability assay.

[29] = test system: OVCAR-5; assay type: functional, cell-based, Homo sapiens; conditions: Homo sapiens, OVCAR-5;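 further: growth inhibition of human OVCAR-5 cells, read out with a cell viability assay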
Description: SANGER: Inhibition of human OVCAR-5 cell growth in a cell viability assay.

[30] = test system: RPMI-8866; assay type: functional, cell-based; conditions: Homo sapiens
Description: SANGER: Inhibition of human RPMI-8866 cell growth in a cell viability assay.

[31] = test system: SCC-15; assay type: functional, cell-based, Homo sapiens; conditions: Homo sapiens, SCC-15;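 further: growth inhibition of SCC-15 cells, read out with a cell viability assay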
Description: SANGER: Inhibition of human SCC-15 cell growth in a cell viability assay.

[32] = test system: SCH; assay type: functional, cell-based, Homo sapiens; conditions: Homo sapiens, SCH;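 further: growth inhibition of human SCH cells, read out in a cell viability assay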
Description: SANGER: Inhibition of human SCH cell growth in a cell viability assay.

[33] = test system: SF-539; assay type: functional, cell-based, Homo sapiens; conditions: Homo sapiens, SF-539;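 further: Read-out is a cell viability assay, with IC50 reflecting inhibition of cell growth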
Description: SANGER: Inhibition of human SF539 cell growth in a cell viability assay.

[34] = test system: SK-UT-1; assay type: functional, cell-based, Homo sapiens; conditions: Homo sapiens, SK-UT-1;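 further: growth inhibition of SK-UT-1 cells, measured by a cell viability assay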
Description: SANGER: Inhibition of human SK-UT-1 cell growth in a cell viability assay.

[35] = test system: SW1088; assay type: functional, cell-based, Homo sapiens; conditions: Homo sapiens, SW1088;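 further: growth inhibition of human SW1088 cells, read out by a cell viability assay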
Description: SANGER: Inhibition of human SW1088 cell growth in a cell viability assay.

[36] = test system: SW684; assay type: functional, cell-based, Homo sapiens; conditions: Homo sapiens, SW684;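 further: growth inhibition of human SW684 cells, measured by a cell viability assay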
Description: SANGER: Inhibition of human SW684 cell growth in a cell viability assay.

[37] = test system: SAOS-2; assay type: functional, cell-based, Homo sapiens; conditions: Homo sapiens, SAOS-2;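 further: growth inhibition of human Saos-2 cells determined by a cell viability assay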
Description: SANGER: Inhibition of human Saos-2 cell growth in a cell viability assay.

[38] = test system: TCC-SUP; assay type: functional, cell-based, Homo sapiens; conditions: Homo sapiens, TCC-SUP;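 further: growth inhibition of TCC-SUP cells, read out with a cell viability assay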
Description: SANGER: Inhibition of human TCCSUP cell growth in a cell viability assay.

[39] = test system: 769-P; assay type: functional, cell-based, Homo sapiens; conditions: Homo sapiens, 769-P
Description: SANGER: Inhibition of human 769-P cell growth in a cell viability assay.

[40] = test system: BPH-1; assay type: functional, cell-based, Homo sapiens; conditions: Homo sapiens, BPH-1;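 further: cell viability assay measuring growth inhibition of human BPH-1 cells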
Description: SANGER: Inhibition of human BPH-1 cell growth in a cell viability assay.

[41] = test system: BT-20; assay type: functional, cell-based, Homo sapiens; conditions: Homo sapiens, BT-20;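 further: cell viability assay measuring suppression of growth in human BT-20 cells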
Description: SANGER: Inhibition of human BT-20 cell growth in a cell viability assay.

[42] = test system: BXPC-3; assay type: functional, cell-based, Homo sapiens; conditions: Homo sapiens, BXPC-3;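 further: growth inhibition of human BxPC-3 cells, read out by a cell viability assay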
Description: SANGER: Inhibition of human BxPC-3 cell growth in a cell viability assay.

[43] = test system: CAL-54; assay type: functional, cell-based, Homo sapiens; conditions: Homo sapiens, CAL-54;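 further: growth inhibition of CAL-54 cells, read out by a viability measurement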
Description: SANGER: Inhibition of human CAL-54 cell growth in a cell viability assay.

[44] = test system: TE-5; assay type: functional, cell-based, Homo sapiens; conditions: Homo sapiens, TE-5;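 further: inhibition of cell growth, read out by a cell viability assay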
Description: SANGER: Inhibition of human TE-5 cell growth in a cell viability assay.

[45] = test system: TE-6; assay type: functional, cell-based, Homo sapiens; conditions: Homo sapiens, TE-6;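 further: growth inhibition of TE-6 cells, read out with a cell viability assay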
Description: SANGER: Inhibition of human TE-6 cell growth in a cell viability assay.

[46] = test system: TGBC1TKB; assay type: functional, cell-based, Homo sapiens; conditions: Homo sapiens, TGBC1TKB;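 further: growth inhibition of TGBC1TKB cells, read out by a cell viability assay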
Description: SANGER: Inhibition of human TGBC1TKB cell growth in a cell viability assay.

[47] = test system: U-251; assay type: functional, cell-based, Homo sapiens; conditions: Homo sapiens, U-251;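 further: growth inhibition of human U-251 cells, read out through a cell viability assay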
Description: SANGER: Inhibition of human U251 cell growth in a cell viability assay.

[48] = test system: VMRC-RCZ; assay type: functional, cell-based; conditions: Homo sapiens;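 further: growth inhibition measured with a cell viability assay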
Description: SANGER: Inhibition of human VMRC-RCZ cell growth in a cell viability assay.

[49] = test system: YAPC; assay type: functional, cell-based, Homo sapiens; conditions: Homo sapiens, YAPC;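 further: growth inhibition of YAPC cells, measured with a cell viability assay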
Description: SANGER: Inhibition of human YAPC cell growth in a cell viability assay.

[50] = test system: CAPAN-1; assay type: functional, cell-based, Homo sapiens; conditions: Homo sapiens, CAPAN-1;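 further: growth suppression of CAPAN-1 cells, read out by a cell viability assay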
Description: SANGER: Inhibition of human CAPAN-1 cell growth in a cell viability assay.

CC(=O)O[C@@]12CO[C@@H]1C[C@H](O)[C@@]1(C)C(=O)[C@H](O)C3=C(C)[C@@H](OC(=O)[C@H](O)[C@@H](NC(=O)OC(C)(C)C)c4ccccc4)C[C@@](O)([C@@H](OC(=O)c4ccccc4)[C@H]21)C3(C)C [DOCETAXEL]
IC50 [1]: 6.93 nM
IC50 [2]: 4.47 nM
IC50 [3]: 0.489 nM
IC50 [4]: 9.26 nM
IC50 [5]: 0.755 nM
IC50 [6]: > 10 nM
IC50 [7]: 0.157 nM
IC50 [8]: 2.35 nM
IC50 [9]: 2.82 nM
IC50 [10]: 1.35 nM
IC50 [11]: 1.44 nM
IC50 [12]: 0.758 nM
IC50 [13]: 1.69 nM
IC50 [14]: > 10 nM
IC50 [15]: > 10 nM
IC50 [16]: 8.27 nM
IC50 [17]: 5.67 nM
IC50 [18]: > 10 nM
IC50 [19]: > 10 nM
IC50 [20]: 6.58 nM
IC50 [21]: > 10 nM
IC50 [22]: 6.79 nM
IC50 [23]: > 10 nM
IC50 [24]: 5.35 nM
IC50 [25]: 2.25 nM
IC50 [26]: > 10 nM
IC50 [27]: 5.13 nM
IC50 [28]: 3.08 nM
IC50 [29]: 1.99 nM
IC50 [30]: 2.81 nM
IC50 [31]: 6.89 nM
IC50 [32]: 8.18 nM
IC50 [33]: 0.302 nM
IC50 [34]: 2.26 nM
IC50 [35]: 2.95 nM
IC50 [36]: > 10 nM
IC50 [37]: 1.68 nM
IC50 [38]: > 10 nM
IC50 [39]: > 10 nM
IC50 [40]: 1.02 nM
IC50 [41]: 3.76 nM
IC50 [42]: 2.51 nM
IC50 [43]: > 10 nM
IC50 [44]: 1.06 nM
IC50 [45]: > 10 nM
IC50 [46]: 9.1 nM
IC50 [47]: 2.5 nM
IC50 [48]: 2.52 nM
IC50 [49]: > 10 nM
IC50 [50]: > 10 nM

CN(Cc1cnc2nc(N)nc(N)c2n1)c1ccc(C(=O)N[C@@H](CCC(=O)O)C(=O)O)cc1 [METHOTREXATE]
IC50 [1]: > 200 nM
IC50 [2]: > 200 nM
IC50 [3]: > 200 nM
IC50 [4]: > 200 nM
IC50 [5]: > 200 nM
IC50 [6]: 134 nM
IC50 [7]: > 200 nM
IC50 [8]: 19.4 nM
IC50 [9]: > 200 nM
IC50 [10]: > 200 nM
IC50 [11]: > 200 nM
IC50 [12]: > 200 nM
IC50 [13]: > 200 nM
IC50 [14]: > 200 nM
IC50 [15]: > 200 nM
IC50 [16]: 11.6 nM
IC50 [17]: > 200 nM
IC50 [18]: 45.3 nM
IC50 [19]: > 200 nM
IC50 [20]: > 200 nM
IC50 [21]: > 200 nM
IC50 [22]: > 200 nM
IC50 [23]: > 200 nM
IC50 [24]: > 200 nM
IC50 [25]: > 200 nM
IC50 [26]: 7.7 nM
IC50 [27]: 16.2 nM
IC50 [28]: > 200 nM
IC50 [29]: > 200 nM
IC50 [30]: 20 nM
IC50 [31]: > 200 nM
IC50 [32]: > 200 nM
IC50 [33]: > 200 nM
IC50 [34]: > 200 nM
IC50 [35]: > 200 nM
IC50 [36]: > 200 nM
IC50 [37]: > 200 nM
IC50 [38]: > 200 nM
IC50 [39]: 45.3 nM
IC50 [40]: > 200 nM
IC50 [41]: > 200 nM
IC50 [42]: > 200 nM
IC50 [43]: > 200 nM
IC50 [44]: > 200 nM
IC50 [45]: > 200 nM
IC50 [46]: > 200 nM
IC50 [47]: > 200 nM
IC50 [48]: > 200 nM
IC50 [49]: > 200 nM
IC50 [50]: > 200 nM

O=C(c1cc(Cc2n[nH]c(=O)c3ccccc23)ccc1F)N1CCN(C(=O)C2CC2)CC1 [OLAPARIB]
IC50 [1]: > 5000 nM
IC50 [2]: > 5000 nM
IC50 [3]: > 5000 nM
IC50 [4]: > 5000 nM
IC50 [5]: > 5000 nM
IC50 [6]: > 5000 nM
IC50 [7]: > 5000 nM
IC50 [8]: > 5000 nM
IC50 [9]: > 5000 nM
IC50 [10]: > 5000 nM
IC50 [11]: > 5000 nM
IC50 [12]: > 5000 nM
IC50 [13]: > 5000 nM
IC50 [14]: > 5000 nM
IC50 [15]: > 5000 nM
IC50 [16]: > 5000 nM
IC50 [17]: > 5000 nM
IC50 [18]: > 5000 nM
IC50 [19]: > 5000 nM
IC50 [20]: > 5000 nM
IC50 [21]: > 5000 nM
IC50 [22]: > 5000 nM
IC50 [23]: > 5000 nM
IC50 [24]: > 5000 nM
IC50 [25]: > 5000 nM
IC50 [26]: 1250 nM
IC50 [27]: > 5000 nM
IC50 [28]: > 5000 nM
IC50 [29]: > 5000 nM
IC50 [30]: > 5000 nM
IC50 [31]: > 5000 nM
IC50 [32]: > 5000 nM
IC50 [33]: > 5000 nM
IC50 [34]: > 5000 nM
IC50 [35]: > 5000 nM
IC50 [36]: > 5000 nM
IC50 [37]: > 5000 nM
IC50 [38]: > 5000 nM
IC50 [39]: > 5000 nM
IC50 [40]: > 5000 nM
IC50 [41]: > 5000 nM
IC50 [42]: > 5000 nM
IC50 [43]: > 5000 nM
IC50 [44]: > 5000 nM
IC50 [45]: > 5000 nM
IC50 [46]: > 5000 nM
IC50 [47]: > 5000 nM
IC50 [48]: > 5000 nM
IC50 [49]: > 5000 nM
IC50 [50]: > 5000 nM

Cn1cc(C2=C(c3ccc(Cl)cc3Cl)C(=O)NC2=O)c2ccccc21 [SB-216763]
IC50 [1]: > 10000 nM
IC50 [2]: > 10000 nM
IC50 [3]: > 10000 nM
IC50 [4]: > 10000 nM
IC50 [5]: > 10000 nM
IC50 [6]: > 10000 nM
IC50 [7]: > 10000 nM
IC50 [8]: > 10000 nM
IC50 [9]: > 10000 nM
IC50 [10]: > 10000 nM
IC50 [11]: > 10000 nM
IC50 [12]: > 10000 nM
IC50 [13]: > 10000 nM
IC50 [14]: > 10000 nM
IC50 [15]: > 10000 nM
IC50 [16]: > 10000 nM
IC50 [17]: > 10000 nM
IC50 [18]: > 10000 nM
IC50 [19]: > 10000 nM
IC50 [20]: > 10000 nM
IC50 [21]: > 10000 nM
IC50 [22]: > 10000 nM
IC50 [23]: > 10000 nM
IC50 [24]: > 10000 nM
IC50 [25]: > 10000 nM
IC50 [26]: > 10000 nM
IC50 [27]: > 10000 nM
IC50 [28]: > 10000 nM
IC50 [29]: > 10000 nM
IC50 [30]: > 10000 nM
IC50 [31]: > 10000 nM
IC50 [32]: > 10000 nM
IC50 [33]: > 10000 nM
IC50 [34]: > 10000 nM
IC50 [35]: > 10000 nM
IC50 [36]: > 10000 nM
IC50 [37]: > 10000 nM
IC50 [38]: > 10000 nM
IC50 [39]: > 10000 nM
IC50 [40]: > 10000 nM
IC50 [41]: > 10000 nM
IC50 [42]: > 10000 nM
IC50 [43]: > 10000 nM
IC50 [44]: > 10000 nM
IC50 [45]: > 10000 nM
IC50 [46]: > 10000 nM
IC50 [47]: > 10000 nM
IC50 [48]: > 10000 nM
IC50 [49]: > 10000 nM
IC50 [50]: > 10000 nM

Source: ChEMBL document CHEMBL1201861, “Genomics of Drug Sensitity in Cancer screening data, Wellcome Trust Sanger Institute”
